According to US20240158348A1, “HERBICIDAL CYCLIC AMIDES N-SUBSTITUTED WITH A HALOALKYLSULFONYLANILIDE GROUP” (FMC Corporation, priority 2021, published 2024):

Tests used:
Format in all cases: in vivo
[1] = tested on: pigweed, palmer (palmer amaranth, Amaranthus palmeri); experiment: Test A preemergence, palmer amaranth; conditions: 0 to 100 scale, 10 days
Description: (§1) Seeds of plant species selected from barnyardgrass (Echinochloa crus-galli), blackgrass (Alopecurus myosuroides), corn (Zea mays), foxtail, giant (giant foxtail, Setaria faberi), goosegrass (Eleusine indica), kochia (Bassia scoparia), oat, wild (wild oat, Avena fatua), pigweed, palmer (palmer amaranth, Amaranthus palmeri), pigweed, redroot (redroot pigweed, Amaranthus retroflexus), ragweed (common ragweed, Ambrosia artemisiifolia), ryegrass, Italian (Italian ryegrass, Lolium multiflorum), soybean (Glycine max), and wheat (Triticum aestivum) were planted into a blend of loam soil and sand and treated preemergence with a directed soil spray using test chemicals formulated in a non-phytotoxic solvent mixture which included a surfactant.
(§2) At the same time, plants selected from these crop and weed species and also galium (catchweed bedstraw, Galium aparine) and horseweed (Erigeron canadensis) were planted in pots containing the same blend of loam soil and sand and treated with postemergence applications of test chemicals formulated in the same manner. Plants ranged in height from 2 to 10 cm and were in the one- to two-leaf stage for the postemergence treatment. Treated plants and untreated controls were maintained in a greenhouse for 10 days, after which time all treated plants were compared to untreated controls and visually evaluated for injury. Plant response ratings, summarized in Table A, are based on a 0 to 100 scale where 0 is no effect and 100 is complete control. A dash (-) response means no test result.

[2] = tested on: ryegrass, Italian (Italian ryegrass, Lolium multiflorum); experiment: Test A postemergence, Italian ryegrass; conditions: post-emergence, 240 h, 0 to 100 scale, 10 days, read-out: Plant response rating, Ryegrass, Italian; for pest or weed control at 31 g/ha: 31 g ai/ha; for pest or weed control at 125 g/ha: 125 g ai/ha
Description: as §1, §2

[3] = tested on: barnyardgrass (Echinochloa crusgalli); experiment: Test B flooded paddy test, barnyardgrass; conditions: Echinochloa crus-galli; 250 g ai/ha, Flood; scale of 0 to 100 where 0 is no effect and 100 is complete control; visually evaluated after 10 to 14 days; read-out: Plant response rating, Barnyardgrass
Method: (§3) Plant species in the flooded paddy test selected from barnyardgrass (Echinochloa crusgalli), ducksalad (Heteranthera limosa), rice (Oryza sativa), and sedge, umbrella (small-flower umbrella sedge, Cyperus difformis) were grown to the 2-leaf stage for testing. At time of treatment, test pots were flooded to 3 cm above the soil surface, treated by application of test compounds directly to the paddy water, and then maintained at that water depth for the duration of the test. Treated plants and controls were maintained in a greenhouse for 10 to 14 days, after which time all species were compared to controls and visually evaluated. Plant response ratings, summarized in Table B, are based on a scale of 0 to 100 where 0 is no effect and 100 is complete control. A dash (-) response means no test result.

[4] = tested on: ryegrass, Italian (Italian ryegrass, Lolium multiflorum); experiment: Test A preemergence, Italian ryegrass; conditions: pre-emergence, 240 h, 0 to 100 scale, 10 days, read-out: Plant response rating, Ryegrass, Italian; for pest or weed control at 31 g/ha: 31 g ai/ha; for pest or weed control at 125 g/ha: 125 g ai/ha
Description: as §1, §2

[5] = tested on: wheat (Triticum aestivum); experiment: Test A preemergence, wheat; conditions: 0 to 100 scale, 10 days
Description: as §1, §2

[6] = tested on: blackgrass (Alopecurus myosuroides); experiment: Test A preemergence, blackgrass; conditions: 0 to 100 scale, 10 days
Description: as §1, §2

[7] = tested on: rice (Oryza sativa); experiment: Test B flooded paddy test, rice; conditions: 250 g ai/ha, Flood, scale of 0 to 100 where 0 is no effect and 100 is complete control, visually evaluated after 10 to 14 days, read-out: Plant response rating, Rice
Method: as §3

Cc1cc(C)c(N2CCC(OC3CCCC3)C2=O)cc1NS(=O)(=O)C(F)(F)F (stereo not drawn) [Compound 6, N-[5-[3-(cyclopentyloxy)-2-oxo-1-pyrrolidinyl]-2,4-dimethylphenyl]-1,1,1-trifluoromethanesulfonamide]
Plant response rating, Pigweed, Palmer ([1]; 31 g ai/ha): 70 | Plant response rating, Pigweed, Palmer ([1]; 125 g ai/ha): 100 | pest or weed control at 31 g/ha [2]: 0% | pest or weed control at 125 g/ha [2]: 50% | pest or weed control at 250 g/ha [3]: 30% | pest or weed control at 31 g/ha [4]: 80% | pest or weed control at 125 g/ha [4]: 90% | Plant response rating, Wheat ([5]; 31 g ai/ha): 80 | Plant response rating, Wheat ([5]; 125 g ai/ha): 100 | Plant response rating, Blackgrass ([6]; 31 g ai/ha): 50 | Plant response rating, Blackgrass ([6]; 125 g ai/ha): 90 | plant injury at 250 g/ha [7]: 10%

Cc1cc(C)c(N(COC(=O)C(C)(C)C)S(=O)(=O)C(F)(F)F)cc1N1CCC(OC2CC2)C1=O (stereo not drawn) [Compound 7, [[5-[3-(cyclopropyloxy)-2-oxo-1-pyrrolidinyl]-2,4-dimethylphenyl][(trifluoromethyl)sulfonyl]amino]methyl 2,2-dimethylpropanoate]
Plant response rating, Pigweed, Palmer ([1]; 31 g ai/ha): 50 | Plant response rating, Pigweed, Palmer ([1]; 125 g ai/ha): 100 | pest or weed control at 31 g/ha [2]: 50% | pest or weed control at 125 g/ha [2]: 90% | pest or weed control at 250 g/ha [3]: 98% | pest or weed control at 31 g/ha [4]: 100% | pest or weed control at 125 g/ha [4]: 100% | Plant response rating, Wheat ([5]; 31 g ai/ha): 0 | Plant response rating, Wheat ([5]; 125 g ai/ha): 80 | Plant response rating, Blackgrass ([6]; 31 g ai/ha): 30 | Plant response rating, Blackgrass ([6]; 125 g ai/ha): 80 | plant injury at 250 g/ha [7]: 30%

Cc1cc(C)c(N(COC(=O)C(C)(C)C)S(=O)(=O)C(F)(F)F)cc1N1CCC(OC2CCC2)C1=O (stereo not drawn) [Compound 8, [[5-[3-(cyclobutyloxy)-2-oxo-1-pyrrolidinyl]-2,4-dimethylphenyl][(trifluoromethyl)sulfonyl]amino]methyl 2,2-dimethylpropanoate]
Plant response rating, Pigweed, Palmer ([1]; 31 g ai/ha): 30 | Plant response rating, Pigweed, Palmer ([1]; 125 g ai/ha): 90 | pest or weed control at 31 g/ha [2]: 40% | pest or weed control at 125 g/ha [2]: 100% | pest or weed control at 250 g/ha [3]: 98% | pest or weed control at 31 g/ha [4]: 50% | pest or weed control at 125 g/ha [4]: 90% | Plant response rating, Wheat ([5]; 31 g ai/ha): 0 | Plant response rating, Wheat ([5]; 125 g ai/ha): 50 | Plant response rating, Blackgrass ([6]; 31 g ai/ha): 30 | Plant response rating, Blackgrass ([6]; 125 g ai/ha): 70 | plant injury at 250 g/ha [7]: 35%
